Test results as given in patent EP1963277B1, “FLUORINATED COMPOUNDS” (priority 2005, dated 2007).
Where two headings read alike, the source gives them in different places.

Assays:
Format in all cases: in vivo
[1] = system: FCA-treated rats; test: Freund's Complete Adjuvant (FCA) model, mechanical allodynia (modified Randall-Selitto method); settings: p.o.; for paw withdrawal threshold (g), Post Admin 30 min / paw withdrawal threshold (g), Post Admin 60 min / paw withdrawal threshold (g), Post Admin 180 min: 60 mg/kg, ** P<0.01, *** P<0.001 vs Pre-Admin.; for paw withdrawal threshold (g), Pre-Admin. 0 min: group later given 60 mg/kg, baseline before administration
Method: (§1) Administration of FCA to the hind paw of an animal induces the formation of a localized edema and has been widely used as a model of chronic inflammatory pain. 100 µl of FCA is injected subcutaneously into the dorsal aspect of the left hind paw of the rats. The edema appears within 2 h reaches a peak by 6h and lasts for about 7 days. The effects of compounds on mechanical allodynia and paw volume were studied 2 days after FCA administration.
The effect of the compounds in alleviating mechanical allodynia was assessed in the FCA-treated rats using the modified Randall-Selitto method (Analgesy-Meter, Ugo Basile, Italy). The animal's paw is placed on a small plinth under a cone-shaped pusher. Increasing force is applied to the paw by depressing a pedal until vocalization or withdrawal of the paw occurs. The minimum force required to elicit this vocalization/withdrawal is the paw pressure threshold. The cut-off was set at 150 g.
After the initial basal (control) readings were taken, the test compound (60 mg/kg)/vehicle was administered orally in a volume of 10 ml/kg. The paw pressure thresholds were measured 30, 60 and 180 min post administration. […] Some of the compounds were effective even at 60 and 180 min post administration.

[2] = system: FCA-treated rats; test: Freund's Complete Adjuvant (FCA) model, paw edema/volume (plethysmometer); settings: p.o.; for paw volume (ml), Post Admin 30 min / paw volume (ml), Post Admin 60 min: 60 mg/kg; for paw volume (ml), Pre-Admin. 0 min: group later given 60 mg/kg, baseline before administration
Method: as §1
The edema/volume of the paw is a measure of inflammation induced by FCA. This was measured by using a plethysmometer (Ugo Basile, Italy). In this, the paw of the rat is immersed in a reservoir of water and the volume of water displaced indicates the paw volume.
After the initial basal (control) readings were taken, the test compound (60 mg/kg)/vehicle was administered orally in a volume of 10 ml/kg.

[3] = system: rats; test: Persistent Inflammatory Pain (Formalin Model); settings: Rattus norvegicus, formalin test, 30 min pretreatment; for inhibition at 30 mg/kg: ip, i.p.; for inhibition at 60 mg/kg: po, p.o.
Method: The formalin test is a chemically-induced tonic pain model in which injection of formalin into a hind paw elicits a biphasic nociceptive behavior. The second phase of formalin response is predominantly due to a central sensitization phenomenon. Most clinically used drugs against neuropathic pain arc active on this second phase of formalin response. Formalin test is accepted as a valid model of persistent clinical pain.
The test was done by pretreating the rats with the test compound and 30 min later (pretreatment time), 50 µl of 2.5% formalin was injected into the right hind paw of the animal. The number of paw licking and flinching episodes were scored for 60 min post-formalin injection.
The compounds were administered either intraperitoneally (30 mg/kg) or orally (60 mg/kg).

[4] = system: Male, CD-1 mice; test: Maximal Electroshock Assay (mouse); settings: for duration of action: mouse MES, judged by similar potency at 1h and 4h pretreatment timepoints; for Ratio ED50 4h vs. 1h / shift in ED50 for 1 vs. 4h / ED50: mouse; for Ratio ED50 4h vs. 1h / shift in ED50 for 1 vs. 4h: oral; for ED50: oral pretreatment, range in parentheses
Method: Male, CD-1 mice (20-30g body weight) were orally pretreated with test compound or vehicle control, and either at 1h or 4h post dose a maximal electroshock (45mA amplitude, 0.2s duration, 60Hz) was applied by corneal electrodes. Protection was defined by the absence of a tonic extensor seizure in the animal within 20s of application of the electrical stimulus, which typically occurred in all vehicle pretreated animals. Animals received only one electroshock and so separate animals were used for the 1h and 4h timepoints. All drugs were administered in multiple doses.

[5] = system: SNI rats; test: Spared Nerve Injury (SNI) model, cold allodynia (acetone test); settings: for duration (s) of nociceptive response, Post Admin 30 min: *** P<0.001 vs Pre-Admin.; for duration (s) of nociceptive response, Pre-Admin. 0 min: baseline before administration
Method: (§2) The compounds were tested for their efficacy in reducing mechanical allodynia and cold allodynia in the spared nerve injury (SNI) model of chronic neuropathic pain. In this model, the left sciatic nerve of the rat is exposed under anesthesia. Two of the branches of the sciatic nerve viz. the common peroneal and tibial nerve are ligated and sectioned. The third branch (sural nerve) is left intact. The animals were allowed a post-operative recovery period of 7 days before they were subjected to any test.
Cold allodynia was assessed by using the acetone test. In this model, 25 µl of acetone is sprayed on to the plantar surface of the hind paw. Evaporation of acetone causes cooling of the skin. The cold stimulus sets up nociceptive responses from the injured paw as evidenced by paw lifting, paw licking and grooming. The duration of the nociceptive responses is noted.
Testing of compounds was done after 21 days post-operatively. After initial basal readings were taken, the test compound or the vehicle was administered (10 ml/kg) either intraperitoneally (30 mg/kg) or orally (60 mg/kg). The readings were taken 30 min after the administration.

[6] = system: Male, Sprague-Dawley rats; test: Maximal Electroshock Assay (rat); settings: for duration of action: rat MES, judged by similar potency at 0.5h and 4h pretreatment timepoints; for Ratio ED50 4h vs. 0.5h / shift in ED50 for 0.5 vs. 4h / ED50: rat; for Ratio ED50 4h vs. 0.5h / shift in ED50 for 0.5 vs. 4h: oral; for ED50: oral pretreatment, range in parentheses
Method: Male, Sprague-Dawley rats (approx. 100g body weight) were prescreened for tonic seizure susceptibility prior to drug testing. […] Protection was defined by the absence of a tonic extensor seizure in the animal within 20s of application of the electrical stimulus, which typically occurred in all vehicle pretreated animals. Animals received only one electroshock on the drug test day and so separate animals were used for the 0.5h and 4h timepoints. All drugs were administered in multiple doses.

[7] = system: SNI rats; test: Spared Nerve Injury (SNI) model, mechanical allodynia (Dynamic Plantar Aesthesiometer); settings: for withdrawal threshold, Post Admin 30 min / withdrawal threshold, Post Admin 60 min / withdrawal threshold, Post Admin 180 min: *** P<0.001 vs Pre-Admin.; for withdrawal threshold, Pre-Admin. 0 min: baseline before administration
Method: as §2
The presence of mechanical allodynia was assessed using the Dynamic Plantar Aesthesiometer (Ugo Basile, Italy) which is a modified version of the Von Frey Hair test. In this, a test filament is positioned below the animal's hind paw and the unit is activated which causes the filament to move up and touch the plantar surface of the hind paw. Increasing force is applied to the paw via the filament. […] The cut-off force is set at 50 g. The tests were done on both the non-injured (control) and the injured (SNI) paw.
Testing of compounds was done after 21 days post-operatively. After initial basal readings were taken, the test compound or the vehicle was administered (10 ml/kg) either intraperitoneally (30 mg/kg) or orally (60 mg/kg). The readings were taken again 30, 60 and 180 min after the compound/vehicle administration.

[8] = *** P<0.001, read-out: %Inhibition Phase I
[9] = *** P<0.001, read-out: %Inhibition Phase II
[10] = ** P<0.01, *** P<0.001, read-out: %Inhibition Phase II
[11] = electroshock 1h post dose, blockade of tonic extensor seizure, read-out: MES oral ED50 1h
[12] = read-out: MES oral ED50 4h, electroshock 4h post dose
[13] = group later given 30 mg/kg, i.p.
[14] = group later given 60 mg/kg, p.o.
[15] = read-out: MES oral ED50 0.5h, electroshock 0.5h post dose

Row | SMILES | paw withdrawal threshold (g), Post Admin 30 min [1] | paw withdrawal threshold (g), Post Admin 60 min [1] | paw withdrawal threshold (g), Post Admin 180 min [1] | paw withdrawal threshold (g), Pre-Admin. 0 min [1] [g] | paw volume (ml), Post Admin 30 min [2] [mL] | paw volume (ml), Post Admin 60 min [2] [mL] | paw volume (ml), Pre-Admin. 0 min [2] [mL] | inhibition at 30 mg/kg [3, 8] [%] | inhibition at 30 mg/kg [3, 9] [%] | inhibition at 60 mg/kg [3, 10] [%] | inhibition at 60 mg/kg ([3]; read-out: %Inhibition Phase I) [%] | duration of action [4] | Ratio ED50 4h vs. 1h [4] | shift in ED50 for 1 vs. 4h [4] [fold] | ED50 [4, 11] [mg/kg] | ED50 [4, 12] [mg/kg] | duration (s) of nociceptive response, Post Admin 30 min ([5]; 30 mg/kg, i.p.) | duration (s) of nociceptive response, Post Admin 30 min ([5]; 60 mg/kg, p.o.) | duration (s) of nociceptive response, Pre-Admin. 0 min [5, 13] [s] | duration (s) of nociceptive response, Pre-Admin. 0 min [5, 14] [s] | further results
1 | CC(=O)N[C@H](COC(F)F)C(=O)NCc1ccc(Cl)cc1 [Compound 20] | 67.1 ± 9.9*** g | 60.4 ± 5.8*** g | 64.2 ± 5.6*** g | 23.3 ± 2.1 | 2.3 ± 0.1 | 2.3 ± 0.1 | 2.3 ± 0.1 | 75.3 ± 9.3 | 82.3 ± 9.7 | 57.6 ± 7 | 9.6 ± 8.1 | longer than Lacosamide | 2.1 | 1 to 3.5 | 8.7 | 17.9 | 3.4 ± 2.1*** s | 16.6 ± 6.3*** s | 45.6 ± 6.9 | 33.3 ± 4.3 | duration of action [6]: longer than Lacosamide; Ratio ED50 4h vs. 0.5h [6]: 1.2; shift in ED50 for 0.5 vs. 4h [6]: 1 to 1.4 fold; ED50 [6, 15]: 1.7 mg/kg; ED50 [6, 12]: 2 mg/kg; withdrawal threshold, Post Admin 30 min ([7]; 30 mg/kg, i.p.): 24.9 ± 4.4*** g; withdrawal threshold, Post Admin 60 min ([7]; 30 mg/kg, i.p.): 23.3 ± 3.2*** g; withdrawal threshold, Post Admin 180 min ([7]; 30 mg/kg, i.p.): 26.3 ± 2.5*** g; withdrawal threshold, Post Admin 30 min ([7]; 60 mg/kg, p.o.): 19.3 ± 1.8*** g; withdrawal threshold, Post Admin 60 min ([7]; 60 mg/kg, p.o.): 20.3 ± 1.6*** g; withdrawal threshold, Post Admin 180 min ([7]; 60 mg/kg, p.o.): 14.7 ± 0.9*** g; withdrawal threshold, Pre-Admin. 0 min [7, 13]: 12.4 ± 1.3 g; withdrawal threshold, Pre-Admin. 0 min [7, 14]: 7.5 ± 0.5 g
2 | CC(=O)NC(COC(F)F)C(=O)NCc1ccc(F)cc1 (stereo not drawn) [Compound 4, 2-(Acetylamino)-3-(difluoromethoxy)-N-(4-fluoro-benzyl)propanamide] | 58.3 ± 4.8** g | 49.4 ± 6.4** g | 51.1 ± 8.9** g | 33.9 ± 4.2 | 2.08 ± 0.0 | 2.11 ± 0.0 | 2.01 ± 0.0 | 94.7 ± 5.3 | 81.6 ± 10 | 41.9 ± 9 | 7.6 ± 6.7 | longer than Lacosamide | 1.0 | 1 to 3.5 | 9.8 | 9.8 | 3.1 ± 2.1*** s | 21.9 ± 6.4*** s | 48.2 ± 10.1 | 56.2 ± 8.4 | duration of action [6]: longer than Lacosamide; Ratio ED50 4h vs. 0.5h [6]: 1.0; shift in ED50 for 0.5 vs. 4h [6]: 1 to 1.4 fold; ED50 [6, 15]: 3.3 mg/kg; ED50 [6, 12]: 3.4 mg/kg; withdrawal threshold, Post Admin 30 min ([7]; 30 mg/kg, i.p.): 16.7 ± 1.4*** g; withdrawal threshold, Post Admin 60 min ([7]; 30 mg/kg, i.p.): 15.0 ± 0.8*** g; withdrawal threshold, Post Admin 180 min ([7]; 30 mg/kg, i.p.): 13.2 ± 1.0*** g; withdrawal threshold, Post Admin 30 min ([7]; 60 mg/kg, p.o.): 15.4 ± 1.1*** g; withdrawal threshold, Post Admin 60 min ([7]; 60 mg/kg, p.o.): 16.2 ± 1.7*** g; withdrawal threshold, Post Admin 180 min ([7]; 60 mg/kg, p.o.): 7.9 ± 0.6 g; withdrawal threshold, Pre-Admin. 0 min [7, 13]: 6.7 ± 0.7 g; withdrawal threshold, Pre-Admin. 0 min [7, 14]: 7.5 ± 0.5 g
